Assay results reported in patent publication US20220280590A1, “USE OF INHIBITORS OF YAP AND SOX2 FOR THE TREATMENT OF CANCER” (Georgetown University, priority 2019, published 2022).

Legend:
[1] = system: primary KYYF pancreatic tumor cells; assay: Percent of global DNA methylation in KYYF cells; assay type: cell-based, mouse; settings: 5 μM, 3 days versus DMSO
From the text: (§1) (*P<0.05; **P<0.005; ***P<0.0005; ns: not significant; error bars indicate standard deviation).
(§2) Quantitative methylation-specific PCR (qMSP) was used to confirm that the promoters of acinar lineage genes Ptf1a and Bhlha15 became heavily methylated in KF pancreatic tumors in contrast to wild type (WT) pancreata, which was partially reversed in KYYF pancreata after TAM treatment (FIG. 5L). To directly assess the effects of DNA de-methylation on the expression of pancreatic lineage genes, YAP^+ primary pancreatic tumor cells were treated with vehicle control or DNA methylation inhibitor 5-azacytidine (5-Aza). […] The levels of global DNA methylation in primary KYYF pancreatic tumor cells were measured following treatment with Ad-GFP or Ad-CRE, and it was confirmed that YAP ablation induced a rapid and significant decline in global DNA methylation, which partially recovered over time (FIG. 5B).

[2] = system: primary KYYF pancreatic tumor cells; assay: Relative mRNA levels of lineage genes and SOX2 in KYYF pancreatic tumor cells; assay type: cell-based, mouse; settings: YAP+ primary pancreatic tumor cells, 0.5, 2, 5 μM for 3 days versus DMSO
From the text: as §1, §2

[3] = system: SOX2, SOX5, and TWIST2 in primary PDAC cell lines; assay: Western blot of pluripotent transcription factors in primary PDAC lines; assay type: cell-based; settings: after 24 hours, compared to DMSO control
Method: Western blot assay with indicated antibodies in four different primary PDAC lines expressing variable levels of SOX2/SOX5/TWIST2 after 24 hr treatment with DMSO (−) or Miv (+) is shown. Multiple primary PDAC cell lines were treated with BET inhibitor mivebresib.

[4] = system: mT4, 08031-9, MD-MB-231, 786-O and HepG2 cells; assay: FACS analysis of relative ratios of control (RFP-) and YAP/TAZ-depleted (shY/T, RFP+) cancer cells in co-culture; assay type: cell-based; settings: compared to vehicle, pancreatic, schwannoma, breast, kidney and liver cancer lines
Method: FACS analysis of the relative ratios of control (Ctrl, RFP-) or YAP/TAZ-depleted (shY/T, RFP^+) cancer cells after co-culturing in the presence of vehicle (Veh) or BE inhibitor mivebresib (Miv) was performed (n=3). […] The YAP/TAZ hairpin RNAs were fused with fluorescent protein RFP. […] (FIG. 8).

SMILES | global DNA methylation [1] | expression of acinar and endocrine lineage genes and SOX2 [2] | expression of pluripotent transcription factors SOX2, SOX5, and TWIST2 [3] | percentage of control (RFP-) relative to shY/T (RFP+) cancer cells [4]
Nc1ncn([C@@H]2O[C@H](CO)[C@@H](O)[C@H]2O)c(=O)n1 [5-Aza, 5-azacytidine] | global DNA de-methylation | dose-dependent upregulation | – | –
CCS(=O)(=O)Nc1ccc(Oc2ccc(F)cc2F)c(-c2cn(C)c(=O)c3[nH]ccc23)c1 [mivebresib] | – | – | selectively reduced | greater percentage of control (RFP^−) cancer cells relative to shY/T (RFP^+) cancer cells
